Assays:
[1] = test system: BaF3-EGFR (Del19/T790M/C797S) cells; assay: Inhibitory activity on Ba/F3 cell proliferation (CellTiter-Glo, 72 hours); assay type: cell-based; details: Ba/F3 cells expressing EGFR Del19/T790M/C797S
Procedure, shortened: (§1)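 Ba/F3 cells expressing wild-type EGFR or EGFR Del19/T790M/C797S, 3×10^3 per well, exposed 72 h at 37 °C to compound at 12 threefold dilutions, 0.00005-10 μM final. Viability by CellTiter-Glo 2.0; GI50 derived from growth relative to DMSO-treated cells.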

BaF3-EGFR (WT) cells = assay: as above; assay type: cell-based; details: Ba/F3 cells expressing EGFR WT
Procedure, shortened: as §1

EGFR Del19/T790M/C797S = EGFR Del19/T790M/C797S (Homo sapiens, UniProt P00533, C797S/T790M, form not given); assay: Enzyme IC50, EGFR Del19/T790M/C797S; assay type: biochemical
EGFR (T790M) = biological target: T1, EGFR (T790M) (Homo sapiens, UniProt P00533, T790M); assay: scanMAX Kinase analysis panel (DiscoverX), control percentage; assay type: binding; details: 1 μM in DMSO
T1 construct: purchased DiscoverX
Protocol: (§2) The following experiments were performed to evaluate the inhibitory activity of compounds according to the present invention against various enzymes. Specifically, with respect to the compound of Example 2 selected from the Example Compounds of the present invention, the enzyme (kinase) selectivity was measured by requesting DiscoverX company, and the experiment was conducted using a scanMAX™ Kinase analysis panel. Here, the concentration of the drug treated with the enzyme was 1 μM in DMSO, and the control percentage (% control) was determined by the following Equation 1.
(§3) (Example Compound−positive control)/(negative control−positive control)×100 [Equation 1]
(§4) Here, the positive control indicates a compound showing the control percentage of 0%, and the negative control indicates DMSO showing the control percentage of 100%. Further, regarding the enzyme selectivity of the present invention, when the control percentage for each enzyme was <30% (i.e., less than 30%), the compound was determined to have the activity against the corresponding enzyme.

EGFR (L861Q) = biological target: T2, EGFR (L861Q) (Homo sapiens, UniProt P00533, L861Q); assay: as above; assay type: binding; details: 1 μM in DMSO
T2 construct: purchased DiscoverX
Protocol: as §2, §3, §4

EGFR (G719S) = biological target: T3, EGFR (G719S) (Homo sapiens, UniProt P00533, G719S); assay: as above; assay type: binding; details: 1 μM in DMSO
T3 construct: purchased DiscoverX
Protocol: as §2, §3, §4

[2] = biological target: T4, EGFR (L747-S752del, P753S) (Homo sapiens, UniProt P00533, DEL747-752/P753S); assay: as above; assay type: binding; details: 1 μM in DMSO
T4 construct: purchased DiscoverX
Protocol: as §2, §3, §4

[3] = test system: EGFR (L747-T751del, Sins); assay: as above; assay type: binding; details: 1 μM in DMSO
Protocol: as §2, §3, §4

EGFR(S752-I759del) = biological target: T5, EGFR(S752-I759del) (Homo sapiens, UniProt P00533, DEL752-759); assay: as above; assay type: binding; details: 1 μM in DMSO
T5 construct: purchased DiscoverX
Protocol: as §2, §3, §4

[4] = biological target: T6, EGFR (L747-E749del, A750P) (Homo sapiens, UniProt P00533, A750P/DEL747-749); assay: as above; assay type: binding; details: 1 μM in DMSO
T6 construct: purchased DiscoverX
Protocol: as §2, §3, §4

EGFR = biological target: T7, EGFR (Homo sapiens, UniProt P00533); assay: as above; assay type: binding; details: 1 μM in DMSO
T7 construct: purchased DiscoverX
Protocol: as §2, §3, §4

EGFR (L858R) = biological target: T8, EGFR (L858R) (Homo sapiens, UniProt P00533, L858R); assay: as above; assay type: binding; details: 1 μM in DMSO
T8 construct: purchased DiscoverX
Protocol: as §2, §3, §4

EGFR (E746-A750del) = biological target: T9, EGFR (E746-A750del) (Homo sapiens, UniProt P00533, DEL746-750); assay: as above; assay type: binding; details: 1 μM in DMSO
T9 construct: purchased DiscoverX
Protocol: as §2, §3, §4

EGFR (G719C) = biological target: T10, EGFR (G719C) (Homo sapiens, UniProt P00533, G719C); assay: as above; assay type: binding; details: 1 μM in DMSO
T10 construct: purchased DiscoverX
Protocol: as §2, §3, §4

EGFR (L858R, T790M) = biological target: T11, EGFR (L858R, T790M) (Homo sapiens, UniProt P00533, L858R/T790M); assay: as above; assay type: binding; details: 1 μM in DMSO
T11 construct: purchased DiscoverX
Protocol: as §2, §3, §4

T2 sequence (P00533 25-1210 L861Q): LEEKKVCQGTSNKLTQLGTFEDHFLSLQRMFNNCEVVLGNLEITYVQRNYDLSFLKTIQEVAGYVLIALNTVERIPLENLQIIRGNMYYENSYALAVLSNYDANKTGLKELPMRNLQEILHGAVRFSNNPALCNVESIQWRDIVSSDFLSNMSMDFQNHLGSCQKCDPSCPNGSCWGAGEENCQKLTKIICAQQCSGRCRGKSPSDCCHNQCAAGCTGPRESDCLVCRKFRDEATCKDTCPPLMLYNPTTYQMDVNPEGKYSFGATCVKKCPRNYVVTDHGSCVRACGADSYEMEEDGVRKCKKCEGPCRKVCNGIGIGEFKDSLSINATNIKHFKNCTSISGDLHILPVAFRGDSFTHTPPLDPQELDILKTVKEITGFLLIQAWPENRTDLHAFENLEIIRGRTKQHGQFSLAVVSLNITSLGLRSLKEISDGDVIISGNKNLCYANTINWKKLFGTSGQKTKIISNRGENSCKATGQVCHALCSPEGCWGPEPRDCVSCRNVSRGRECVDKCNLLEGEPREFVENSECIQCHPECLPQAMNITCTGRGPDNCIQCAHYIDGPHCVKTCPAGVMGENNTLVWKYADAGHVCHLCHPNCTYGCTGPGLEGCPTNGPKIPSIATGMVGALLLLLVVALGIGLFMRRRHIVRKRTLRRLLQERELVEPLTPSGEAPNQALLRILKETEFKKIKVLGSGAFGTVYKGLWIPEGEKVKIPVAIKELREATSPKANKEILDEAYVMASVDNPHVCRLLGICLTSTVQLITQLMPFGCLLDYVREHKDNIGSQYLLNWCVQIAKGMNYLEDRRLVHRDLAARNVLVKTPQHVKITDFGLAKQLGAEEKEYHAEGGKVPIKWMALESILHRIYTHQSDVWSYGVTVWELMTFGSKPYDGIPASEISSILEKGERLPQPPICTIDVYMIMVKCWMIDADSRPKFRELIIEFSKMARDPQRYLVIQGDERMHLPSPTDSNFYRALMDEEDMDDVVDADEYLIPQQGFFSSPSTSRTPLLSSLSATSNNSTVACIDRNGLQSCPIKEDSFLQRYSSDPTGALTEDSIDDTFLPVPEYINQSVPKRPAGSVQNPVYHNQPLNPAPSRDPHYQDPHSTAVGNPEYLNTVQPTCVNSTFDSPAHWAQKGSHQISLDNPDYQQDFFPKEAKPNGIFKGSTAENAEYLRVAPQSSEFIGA
T1 sequence (P00533 25-1210 T790M): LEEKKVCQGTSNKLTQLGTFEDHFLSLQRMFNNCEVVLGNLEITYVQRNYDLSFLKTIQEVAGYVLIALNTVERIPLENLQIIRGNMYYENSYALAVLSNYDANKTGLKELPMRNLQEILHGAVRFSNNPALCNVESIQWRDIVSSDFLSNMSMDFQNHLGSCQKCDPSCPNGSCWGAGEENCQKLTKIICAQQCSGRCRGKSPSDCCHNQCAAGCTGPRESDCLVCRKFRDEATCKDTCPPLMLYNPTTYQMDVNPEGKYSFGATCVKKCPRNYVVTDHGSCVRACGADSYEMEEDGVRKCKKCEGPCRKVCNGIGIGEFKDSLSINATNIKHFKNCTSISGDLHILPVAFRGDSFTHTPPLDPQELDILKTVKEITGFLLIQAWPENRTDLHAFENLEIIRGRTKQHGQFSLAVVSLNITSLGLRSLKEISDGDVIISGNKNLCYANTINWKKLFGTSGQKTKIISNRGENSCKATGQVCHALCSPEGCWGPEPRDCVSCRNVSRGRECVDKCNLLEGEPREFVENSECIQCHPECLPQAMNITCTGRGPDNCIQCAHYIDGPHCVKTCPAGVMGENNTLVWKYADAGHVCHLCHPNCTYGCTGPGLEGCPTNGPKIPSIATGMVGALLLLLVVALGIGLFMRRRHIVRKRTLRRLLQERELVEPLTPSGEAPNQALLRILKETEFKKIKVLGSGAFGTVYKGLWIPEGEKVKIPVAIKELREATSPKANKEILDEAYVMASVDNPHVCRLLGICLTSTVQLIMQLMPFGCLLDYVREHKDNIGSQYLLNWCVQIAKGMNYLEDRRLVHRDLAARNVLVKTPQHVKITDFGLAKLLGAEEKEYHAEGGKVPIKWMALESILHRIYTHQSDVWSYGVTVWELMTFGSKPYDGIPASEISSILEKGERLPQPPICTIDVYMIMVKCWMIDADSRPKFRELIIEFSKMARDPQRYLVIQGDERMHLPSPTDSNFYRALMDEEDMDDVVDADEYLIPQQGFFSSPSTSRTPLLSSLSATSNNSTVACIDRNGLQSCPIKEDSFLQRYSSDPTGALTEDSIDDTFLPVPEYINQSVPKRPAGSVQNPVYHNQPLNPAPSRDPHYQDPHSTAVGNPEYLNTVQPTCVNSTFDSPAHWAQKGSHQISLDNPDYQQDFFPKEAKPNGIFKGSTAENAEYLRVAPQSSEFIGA
T8 sequence (P00533 25-1210 L858R): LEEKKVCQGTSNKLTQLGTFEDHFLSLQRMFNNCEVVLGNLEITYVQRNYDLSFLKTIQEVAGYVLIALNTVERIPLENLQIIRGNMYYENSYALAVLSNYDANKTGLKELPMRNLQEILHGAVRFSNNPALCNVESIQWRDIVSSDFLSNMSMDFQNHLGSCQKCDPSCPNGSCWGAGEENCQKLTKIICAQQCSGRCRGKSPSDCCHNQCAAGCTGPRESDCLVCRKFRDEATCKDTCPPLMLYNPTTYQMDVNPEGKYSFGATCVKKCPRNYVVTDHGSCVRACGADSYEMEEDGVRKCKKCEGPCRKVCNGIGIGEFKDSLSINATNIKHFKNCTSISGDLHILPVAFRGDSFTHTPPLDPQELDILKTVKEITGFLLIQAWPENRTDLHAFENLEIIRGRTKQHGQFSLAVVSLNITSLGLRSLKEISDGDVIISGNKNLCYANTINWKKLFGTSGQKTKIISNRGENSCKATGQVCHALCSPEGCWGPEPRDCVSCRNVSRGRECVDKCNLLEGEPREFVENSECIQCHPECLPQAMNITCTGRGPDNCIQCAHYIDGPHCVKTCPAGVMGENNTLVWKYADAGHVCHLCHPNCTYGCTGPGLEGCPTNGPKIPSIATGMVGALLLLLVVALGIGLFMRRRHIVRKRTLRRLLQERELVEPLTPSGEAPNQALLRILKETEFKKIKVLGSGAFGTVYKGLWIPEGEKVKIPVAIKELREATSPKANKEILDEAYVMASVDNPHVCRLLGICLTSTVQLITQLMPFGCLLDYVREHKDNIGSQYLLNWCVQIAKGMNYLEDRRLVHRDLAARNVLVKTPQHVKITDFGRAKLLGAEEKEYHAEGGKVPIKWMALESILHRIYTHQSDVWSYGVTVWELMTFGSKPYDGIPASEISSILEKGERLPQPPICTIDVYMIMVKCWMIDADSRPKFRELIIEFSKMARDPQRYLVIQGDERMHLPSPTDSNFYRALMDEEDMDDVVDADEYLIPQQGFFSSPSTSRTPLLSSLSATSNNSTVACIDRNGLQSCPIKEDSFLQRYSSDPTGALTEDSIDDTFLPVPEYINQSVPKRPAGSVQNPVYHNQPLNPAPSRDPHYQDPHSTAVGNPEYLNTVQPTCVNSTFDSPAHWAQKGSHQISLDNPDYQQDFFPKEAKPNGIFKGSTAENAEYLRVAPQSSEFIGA
T11 sequence (P00533 25-1210 T790M/L858R): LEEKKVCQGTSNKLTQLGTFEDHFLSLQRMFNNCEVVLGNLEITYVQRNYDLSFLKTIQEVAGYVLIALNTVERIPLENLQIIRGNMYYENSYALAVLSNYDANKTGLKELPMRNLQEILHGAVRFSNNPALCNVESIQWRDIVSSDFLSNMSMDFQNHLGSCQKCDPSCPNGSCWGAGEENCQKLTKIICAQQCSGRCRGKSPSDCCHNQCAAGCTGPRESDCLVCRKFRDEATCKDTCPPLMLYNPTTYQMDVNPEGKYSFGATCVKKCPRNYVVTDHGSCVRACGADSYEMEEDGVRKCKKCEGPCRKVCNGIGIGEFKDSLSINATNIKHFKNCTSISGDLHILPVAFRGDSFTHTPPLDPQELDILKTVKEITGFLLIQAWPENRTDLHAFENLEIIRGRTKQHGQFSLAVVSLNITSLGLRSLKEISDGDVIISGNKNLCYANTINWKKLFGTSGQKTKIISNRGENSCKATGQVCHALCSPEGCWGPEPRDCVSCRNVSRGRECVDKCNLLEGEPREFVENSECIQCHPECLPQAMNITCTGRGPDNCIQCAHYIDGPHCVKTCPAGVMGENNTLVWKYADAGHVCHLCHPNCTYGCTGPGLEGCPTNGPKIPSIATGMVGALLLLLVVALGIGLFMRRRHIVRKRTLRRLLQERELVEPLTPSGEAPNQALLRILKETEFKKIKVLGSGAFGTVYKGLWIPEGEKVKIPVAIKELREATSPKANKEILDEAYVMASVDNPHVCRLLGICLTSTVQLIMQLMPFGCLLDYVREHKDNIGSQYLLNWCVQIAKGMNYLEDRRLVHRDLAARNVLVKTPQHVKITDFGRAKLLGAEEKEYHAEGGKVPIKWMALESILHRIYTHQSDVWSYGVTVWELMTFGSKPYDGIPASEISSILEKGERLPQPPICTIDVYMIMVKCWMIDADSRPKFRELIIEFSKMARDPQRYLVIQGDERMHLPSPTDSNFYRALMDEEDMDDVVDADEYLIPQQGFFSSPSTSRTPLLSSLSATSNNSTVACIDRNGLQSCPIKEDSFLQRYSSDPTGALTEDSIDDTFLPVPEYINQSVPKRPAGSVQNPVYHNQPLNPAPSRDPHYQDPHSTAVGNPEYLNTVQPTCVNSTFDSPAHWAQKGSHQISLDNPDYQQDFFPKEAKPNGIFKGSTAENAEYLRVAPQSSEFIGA

Compound `COc1cc(N2CCC(N3CCN(C)CC3)CC2)c(C)cc1Nc1nc(Nc2ccc3nccnc3c2P(C)(C)=O)c2cc[nH]c2n1` [Example 54, (6-((2-((2-methoxy-5-methyl-4-(4-(4-methyl-piperazin-1-yl)piperidin-1-yl)phenyl)amino)-7H-pyrrolo[2,3-d]pyrimidin-4-yl)amino)quinoxalin-5-yl)dimethyl-phosphine oxide] has a GI50 [1] of no more than 0.05 µM, a GI50 (BaF3-EGFR (WT) cells) greater than 0.1 µM and an IC50 (EGFR Del19/T790M/C797S) of no more than 0.05 µM. The remaining binding at 1 µM (EGFR (T790M)) was less than 30%, the remaining binding at 1 µM (EGFR (L861Q)) was less than 30% and the remaining binding at 1 µM (EGFR (G719S)) was less than 30%. The remaining binding at 1 µM [2] was less than 30%, the “control percentage (% control)” value [3] was less than 30% and the remaining binding at 1 µM (EGFR(S752-I759del)) was less than 30%. It also gave a remaining binding at 1 µM [4] of less than 30%, a remaining binding at 1 µM (EGFR) of less than 30% and a remaining binding at 1 µM (EGFR (L858R)) of less than 30%. It also gave a remaining binding at 1 µM (EGFR (E746-A750del)) of less than 30%, a remaining binding at 1 µM (EGFR (G719C)) of less than 30% and a remaining binding at 1 µM (EGFR (L858R, T790M)) of less than 30%.
